Measurements as given in PubChem BioAssay AID1963445 (Molecular Pharmacology Branch, DTP, NCI, 2024).
One block for each molecule: values may come before it.

Test system: MCF7 complex spheroid growth, % test/control
Test: Anticancer human tumor MCF7 cell line growth inhibition [Asc];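 note: spheroids exposed to compounds for 7 days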;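 for viability, T/C: 100% = DMSO vehicle control wells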
Conditions: for IC50: curve of first compound; for viability, T/C: stronger effect = lower value
In short: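 Complex solid-tumor spheroids incorporating human endothelial and mesenchymal stem cells received single agents or combinations over half-log dilution ranges anchored to clinical Cmax.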

- IC50 (second compound 0.00949 µM): > 100 nM
- IC50 (second compound 0.03 µM): > 100 nM
- IC50 (second compound 0.0949 µM): > 100 nM
- IC50 (second compound 0.3 µM): < 0.316 nM
- IC50 (second compound 0.949 µM): < 0.316 nM
- IC50 (second compound 3 µM): < 0.316 nM
Compound: NC1CCC(NC2CC2c2ccccc2)CC1 (centres undefined) + CCN1C(C(=O)NC23CCC(C(=O)O)(CC2)CC3)C(c2cccc(Cl)c2F)C2(C(=O)Nc3cc(Cl)ccc32)C12CCCCC2
- viability, T/C (second compound 0.00949 µM, first compound 0.000316 µM): 131%
- viability, T/C (second compound 0.00949 µM, first compound 0.001 µM): 116%
- viability, T/C (second compound 0.00949 µM, first compound 0.00316 µM): 131%
- viability, T/C (second compound 0.00949 µM, first compound 0.01 µM): 154%
- viability, T/C (second compound 0.00949 µM, first compound 0.0316 µM): 126%
- viability, T/C (second compound 0.00949 µM, first compound 0.1 µM): 127%
- viability, T/C (second compound 0.03 µM, first compound 0.000316 µM): 108%
- viability, T/C (second compound 0.03 µM, first compound 0.001 µM): 113%
- viability, T/C (second compound 0.03 µM, first compound 0.00316 µM): 123%
- viability, T/C (second compound 0.03 µM, first compound 0.01 µM): 101%
- viability, T/C (second compound 0.03 µM, first compound 0.0316 µM): 107%
- viability, T/C (second compound 0.03 µM, first compound 0.1 µM): 74.8%
- viability, T/C (second compound 0.0949 µM, first compound 0.000316 µM): 65.9%
- viability, T/C (second compound 0.0949 µM, first compound 0.001 µM): 57.9%
- viability, T/C (second compound 0.0949 µM, first compound 0.00316 µM): 43.3%
- viability, T/C (second compound 0.0949 µM, first compound 0.01 µM): 51.7%
- viability, T/C (second compound 0.0949 µM, first compound 0.0316 µM): 58.1%
- viability, T/C (second compound 0.0949 µM, first compound 0.1 µM): 56.8%
- viability, T/C (second compound 0.3 µM, first compound 0.000316 µM): 39.4%
- viability, T/C (second compound 0.3 µM, first compound 0.001 µM): 38.8%
- viability, T/C (second compound 0.3 µM, first compound 0.00316 µM): 43.8%
- viability, T/C (second compound 0.3 µM, first compound 0.01 µM): 40%
- viability, T/C (second compound 0.3 µM, first compound 0.0316 µM): 34.1%
- viability, T/C (second compound 0.3 µM, first compound 0.1 µM): 43%
- viability, T/C (second compound 0.949 µM, first compound 0.000316 µM): 30.3%
- viability, T/C (second compound 0.949 µM, first compound 0.001 µM): 26.9%
- viability, T/C (second compound 0.949 µM, first compound 0.00316 µM): 29.1%
- viability, T/C (second compound 0.949 µM, first compound 0.01 µM): 25.7%
- viability, T/C (second compound 0.949 µM, first compound 0.0316 µM): 29.1%
- viability, T/C (second compound 0.949 µM, first compound 0.1 µM): 23.8%
- viability, T/C (second compound 3 µM, first compound 0.000316 µM): 18.3%
- viability, T/C (second compound 3 µM, first compound 0.001 µM): 18.6%
- viability, T/C (second compound 3 µM, first compound 0.00316 µM): 19.9%
- viability, T/C (second compound 3 µM, first compound 0.01 µM): 15.5%
- viability, T/C (second compound 3 µM, first compound 0.0316 µM): 16.5%
- viability, T/C (second compound 3 µM, first compound 0.1 µM): 19.6%

- IC50 (second compound 0.00316 µM): < 31.6 nM
- IC50 (second compound 0.01 µM): < 31.6 nM
- IC50 (second compound 0.0316 µM): < 31.6 nM
- IC50 (second compound 0.1 µM): < 31.6 nM
- IC50 (second compound 0.316 µM): < 31.6 nM
- IC50 (second compound 1 µM): < 31.6 nM
Compound: C=CC(=O)N1CCN(c2nc(=O)n(-c3c(C)ccnc3C(C)C)c3nc(-c4c(O)cccc4F)c(F)cc23)C(C)C1 (centres undefined) + CNC(C)C(=O)NC1CN(S(=O)(=O)c2cccc(S(=O)(=O)N3CCC4CCC(C(=O)NC(c5ccccc5)c5ccccc5)N4C(=O)C(NC(=O)C(C)NC)C3)c2)CCC2CCC(C(=O)NC(c3ccccc3)c3ccccc3)N2C1=O
- viability, T/C (second compound 0.00316 µM, first compound 0.0316 µM): 68.5%
- viability, T/C (second compound 0.00316 µM, first compound 0.1 µM): 29%
- viability, T/C (second compound 0.00316 µM, first compound 0.316 µM): 30.4%
- viability, T/C (second compound 0.00316 µM, first compound 1 µM): 54.8%
- viability, T/C (second compound 0.00316 µM, first compound 3.16 µM): 60.5%
- viability, T/C (second compound 0.00316 µM, first compound 10 µM): 57.9%
- viability, T/C (second compound 0.01 µM, first compound 0.0316 µM): 20.1%
- viability, T/C (second compound 0.01 µM, first compound 0.1 µM): 15%
- viability, T/C (second compound 0.01 µM, first compound 0.316 µM): 13.6%
- viability, T/C (second compound 0.01 µM, first compound 1 µM): 16.9%
- viability, T/C (second compound 0.01 µM, first compound 3.16 µM): 29.6%
- viability, T/C (second compound 0.01 µM, first compound 10 µM): 46%
- viability, T/C (second compound 0.0316 µM, first compound 0.0316 µM): 12.7%
- viability, T/C (second compound 0.0316 µM, first compound 0.1 µM): 14.4%
- viability, T/C (second compound 0.0316 µM, first compound 0.316 µM): 12.5%
- viability, T/C (second compound 0.0316 µM, first compound 1 µM): 16.3%
- viability, T/C (second compound 0.0316 µM, first compound 3.16 µM): 30.7%
- viability, T/C (second compound 0.0316 µM, first compound 10 µM): 36.6%
- viability, T/C (second compound 0.1 µM, first compound 0.0316 µM): 14.1%
- viability, T/C (second compound 0.1 µM, first compound 0.1 µM): 12%
- viability, T/C (second compound 0.1 µM, first compound 0.316 µM): 16.8%
- viability, T/C (second compound 0.1 µM, first compound 1 µM): 16.2%
- viability, T/C (second compound 0.1 µM, first compound 3.16 µM): 20.2%
- viability, T/C (second compound 0.1 µM, first compound 10 µM): 33%
- viability, T/C (second compound 0.316 µM, first compound 0.0316 µM): 14.5%
- viability, T/C (second compound 0.316 µM, first compound 0.1 µM): 13.5%
- viability, T/C (second compound 0.316 µM, first compound 0.316 µM): 15.2%
- viability, T/C (second compound 0.316 µM, first compound 1 µM): 12.1%
- viability, T/C (second compound 0.316 µM, first compound 3.16 µM): 18.6%
- viability, T/C (second compound 0.316 µM, first compound 10 µM): 33.7%
- viability, T/C (second compound 1 µM, first compound 0.0316 µM): 13%
- viability, T/C (second compound 1 µM, first compound 0.1 µM): 12.8%
- viability, T/C (second compound 1 µM, first compound 0.316 µM): 11.7%
- viability, T/C (second compound 1 µM, first compound 1 µM): 14.8%
- viability, T/C (second compound 1 µM, first compound 3.16 µM): 16.5%
- viability, T/C (second compound 1 µM, first compound 10 µM): 28.9%
